Measurements reported in patent US20260248969A1, “PEPTIDE MULTIMER PRODUCTS AND METHODS” (REGENTS OF THE UNIVERSITY OF MICHIGAN, priority 2023, published 2026).
Residues, ends and D or L forms follow the SMILES beside them. No end group written: not given here. *: point of attachment. IRDye800CW = CC1(C)C(/C=C/C2=C(Oc3ccc(S(=O)(=O)O)cc3)C(=C/C=C3/N(CCCCS(=O)(=O)O)c4ccc(S(=O)(=O)O)cc4C3(C)C)/CCC2)=[N+](CCCCCC(=O)*)c2ccc(S(=O)(=O)[O-])cc21

Key:
[1] = mouse, in vivo, iv
Procedure: C) Serum stability of WKG*-IRDye800 (200 μM in 200 μL of PBS) in mice (n=5) was measured following intravenous injection. Serum was collected at various time points from 0-24 hours post-injection.
The optimized WKG* monomer labeled with IRDye800 was incubated in serum to determine half-life T1/2. Stability in mouse serum over time was measured using analytical RP-HPLC. The relative concentration was calculated from the area-under-the-peak, and the intensities were fit to a first order kinetic model, and the serum half-life T1/2 was determined.

[2] = tested on: CD44; assay: Apparent dissociation constant by flow cytometry on SK-Hep1 cells; type: binding, human; conditions: 0-200 nM, R^2=0.99
Procedure: The equilibrium dissociation constant kd=1/ka was calculated by performing using a least square fit of the data to the non-linear equation I=(I0+Imaxka[X])/(I0+ka[X]). I0 and Imax are the initial and maximum fluorescence intensities, corresponding to no peptide and at saturation, respectively, and [X] represents the concentration of the bound peptide. Results are the mean values from 3 independent experiments.
The apparent dissociation constant (kd) of the IRDye800-labeled WKG* peptide monomer was measured to provide an estimate of binding affinity. The IRDye800-labeled monomer was incubated with human HCC cells over a range of concentrations. Fluorescence intensities were measured with flow cytometry. WKG*-IRDye800 was incubated with SK-Hep1 cells over concentrations ranging from 0-200 nM, and the fluorescence intensity was measured with flow cytometry.

[3] = tested on: CD44; assay: Co-localization of peptide monomer and anti-CD44-AF488 binding to SK-Hep1 cells; conditions: SK-Hep1 human HCC cells
Procedure: Specific binding of the optimized IRDye800-labeled […] monomer peptide was substantiated using a co-localization of binding to known antibodies. Human Hep3B, HepG2, and Sk-Hep1 HCC cells that overexpress early-stage HCC targets were used. A Pearson's correlation coefficient ρ was calculated from fluorescence intensities on merged images. Measurements were made from n=10 cells chosen randomly from 3 slides. Data for CD44 is shown in FIG. 4A, and similar data was obtained for GPC3 and EpCAM. As shown in the figure, binding by WKG*-IRDye800 and anti-CD44-AF488 to the surface (arrows) of Sk-Hep1 cells co-localized with a correlation of p=0.81 measured on the merged image.

[4] = tested on: orthotopic HCC PDX tumors; assay: In vivo MR imaging of tumor uptake, orthotopic HCC PDX model; parameters: species or system mouse; conditions: peak uptake 0.5 hours post-injection, same tumor in n=3 mice
Procedure: (§1) In vivo imaging was performed to assess HCC tumor uptake, biodistribution, and clearance of the optimized multimer. […] The target-to-background (T/B) ratio for the multimer was ~1.8-fold greater than that for monomer and free Gd-DOTA from the same tumor in n=3 animals. The target region was segmented using the Chan-Vese algorithm. The background region was defined by dilating the target region. Clearance of the MR signal occurred after ~4 hours post-injection. Data from whole body NIR fluorescence images collected in vivo from the orthotopic HCC tumor following intravenous injection of the lead candidate EpCAM target and control peptides is shown in FIG. 6C. […] For the differences and variances shown in FIG. 60, the power is >95% to obtain P<0.01 for target versus control using n=8 mice per group.
In vivo tumor uptake of the peptide multimer was evaluated in an orthotopic HCC PDX mouse model using T1-weighted MR images. The Gd-DOTA labeled peptide multimer and peptide monomers specific for GPC3, CD44, and EpCAM were intravenously injected at a concentration of 300 μM in 200 μL of PBS via the tail vein of mice bearing orthotopic PDX tumors, FIG. 13A-E. Gd-DOTA (300 μM in 200 μL PBS) was also intravenously injected as a control. T1-weighted MR images were acquired using a 7T horizontal bore small animal magnet (SGRAD 205/120/HD/S, Agilent Technologies). […]

[5] = tested on: orthotopic HCC PDX tumors; assay: In vivo whole body NIR fluorescence imaging of orthotopic HCC PDX tumors; parameters: species or system mouse; conditions: P<1×10^−4 by paired t-test
Procedure: as §1

[6] = biological target: T1, Epithelial cell adhesion molecule (EpCAM) (human, UniProt P16422 24-314); assay: fluorescence microscopy, 5 uM on CCA-156 cells
T1 construct: whole, on cells; Endogenous target on human HCC cells and tissues
T1 sequence (looked up): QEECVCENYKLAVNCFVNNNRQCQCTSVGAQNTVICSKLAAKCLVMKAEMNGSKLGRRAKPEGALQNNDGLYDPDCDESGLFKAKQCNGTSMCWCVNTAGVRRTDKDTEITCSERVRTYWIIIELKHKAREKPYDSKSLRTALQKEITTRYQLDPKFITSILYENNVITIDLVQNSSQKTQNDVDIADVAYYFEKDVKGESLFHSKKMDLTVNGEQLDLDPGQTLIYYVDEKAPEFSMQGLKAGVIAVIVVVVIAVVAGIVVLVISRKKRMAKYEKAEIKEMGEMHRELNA
Procedure: (§2) Approximately 10³ CCA-156 cells were grown on the cover glass in a 24-well plate to ~90% confluence. The cells were washed with PBS twice and incubated with 5 μM of either Cy5.5-labeled peptide multimer or peptide monomer for 5 min on ice. The cells were then washed with PBS for 3X, fixed with 4% paraformaldehyde (PFA) in PBS for 15 min, washed with PBS for twice, then mounted on glass slides with ProLong Gold reagent containing DAPI (Invitrogen).

[7] = biological target: T2, CD44 (cluster of differentiation 44) (human, UniProt P16070 21-742); assay: flow cytometry, labeled peptide 0-200 nM on SK-Hep1 human HCC cells; apparent dissociation constant
T2 construct: whole, on cells; Endogenous target on human HCC cells and tissues; no recombinant protein was used
Procedure: A) WKG*-IRDye800 and anti-CD44-AF488 bind intensely to the surface (arrows) of SK-Hep1 human HCC cells. A Pearson's correlation coefficient of r=0.81 was measured from the merged image. […] B) An apparent dissociation constant of kd=43 nM, R²=0.99, was measured for WKG*-IRDye800 binding to SK-Hep1 cells. The equilibrium dissociation constant kd=1/kₐ was calculated by performing using a least square fit of the data to the non-linear equation […]. I₀ and Iₘₐₓ are the initial and maximum fluorescence intensities, corresponding to no peptide and at saturation, respectively, and [X] represents the concentration of the bound peptide. Results are the mean values from 3 independent experiments. C) Serum stability of WKG*-IRDye800 (200 μM in 200 μL of PBS) in mice (n=5) was measured following intravenous injection. […] The fluorescence intensity I(t) was measured and fit to a first-order kinetics model I(t)=Iₒ+A×exp(−Bt), and a serum half-life of T_{1/2}=5.1 hours was calculated.
The apparent dissociation constant (kd) of the IRDye800-labeled WKG* peptide monomer was measured to provide an estimate of binding affinity. […] Fluorescence intensities were measured with flow cytometry. WKG*-IRDye800 was incubated with SK-Hep1 cells over concentrations ranging from 0-200 nM, and the fluorescence intensity was measured with flow cytometry. […]

[8] = biological target: T2, CD44 (cluster of differentiation 44); assay: quantified fluorescence on CCA-156 cells, 5 uM; multimer signal comes from cells that carry GPC3, CD44 and EpCAM
Procedure: as §2

[9] = biological target: T3, Glypican-3 (GPC3) (human, UniProt P51654 25-554); assay: as above
T3 construct: whole, on cells; Endogenous target on human HCC cells and tissues
Procedure: as §2

[10] = biological target: T1, Epithelial cell adhesion molecule …; assay: as above
Procedure: as §2

T2 sequence (P16070 21-742): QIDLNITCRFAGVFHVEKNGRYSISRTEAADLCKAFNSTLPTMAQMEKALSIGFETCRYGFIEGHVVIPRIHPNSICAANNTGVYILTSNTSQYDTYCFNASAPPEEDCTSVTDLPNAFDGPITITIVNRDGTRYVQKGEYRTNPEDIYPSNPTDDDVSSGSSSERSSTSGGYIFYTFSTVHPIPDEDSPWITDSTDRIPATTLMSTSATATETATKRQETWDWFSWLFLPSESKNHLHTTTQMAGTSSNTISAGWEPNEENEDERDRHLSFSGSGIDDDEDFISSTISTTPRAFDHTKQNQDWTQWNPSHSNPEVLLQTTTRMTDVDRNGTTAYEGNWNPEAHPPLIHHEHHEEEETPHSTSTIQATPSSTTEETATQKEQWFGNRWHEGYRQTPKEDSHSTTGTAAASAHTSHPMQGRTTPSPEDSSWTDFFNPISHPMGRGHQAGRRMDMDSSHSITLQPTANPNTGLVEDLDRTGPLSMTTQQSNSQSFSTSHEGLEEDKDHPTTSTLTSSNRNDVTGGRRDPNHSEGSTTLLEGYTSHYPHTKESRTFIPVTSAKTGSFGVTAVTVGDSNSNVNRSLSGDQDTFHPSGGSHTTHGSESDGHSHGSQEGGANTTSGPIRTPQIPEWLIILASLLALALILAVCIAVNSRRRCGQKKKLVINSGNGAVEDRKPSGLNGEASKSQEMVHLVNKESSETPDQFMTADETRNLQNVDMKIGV
T3 sequence (P51654 25-554 limits assumed): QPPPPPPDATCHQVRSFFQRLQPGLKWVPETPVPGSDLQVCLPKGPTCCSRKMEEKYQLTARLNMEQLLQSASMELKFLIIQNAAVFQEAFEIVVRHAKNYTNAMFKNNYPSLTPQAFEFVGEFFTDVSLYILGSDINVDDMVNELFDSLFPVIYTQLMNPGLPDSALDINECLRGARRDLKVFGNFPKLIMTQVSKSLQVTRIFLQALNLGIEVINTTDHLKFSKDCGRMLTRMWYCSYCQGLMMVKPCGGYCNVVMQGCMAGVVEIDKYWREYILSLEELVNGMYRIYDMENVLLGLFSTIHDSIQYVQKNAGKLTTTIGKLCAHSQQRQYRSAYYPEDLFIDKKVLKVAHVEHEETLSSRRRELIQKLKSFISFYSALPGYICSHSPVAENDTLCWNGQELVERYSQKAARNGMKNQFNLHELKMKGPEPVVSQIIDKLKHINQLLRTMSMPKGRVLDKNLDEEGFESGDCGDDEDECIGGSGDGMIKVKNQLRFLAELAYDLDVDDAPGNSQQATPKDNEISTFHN

CC(C)C[C@H](NC(=O)[C@H](Cc1ccc(O)cc1)NC(=O)[C@H](CO)NC(=O)[C@H](Cc1c[nH]c2ccccc12)NC(=O)CNC(=O)[C@H](CCCCN)NC(=O)[C@@H](N)Cc1c[nH]c2ccccc12)C(=O)N[C@@H](Cc1c[nH]c2ccccc12)C(=O)N[C@H](C(=O)N[C@@H](CCC(N)=O)C(=O)N[C@@H](CCC(N)=O)C(=O)N[C@@H](C)C(=O)NCC(=O)NCC(=O)NCC(=O)N[C@@H](CO)C(=O)N[C@@H](CCCCNC(=O)CCCCCN1C(=CC=C2CCCC(C=CC3=[N+](CCCCS(=O)(=O)[O-])c4ccc(S(=O)(=O)O)cc4C3(C)C)=C2Oc2ccc(S(=O)(=O)O)cc2)C(C)(C)c2cc(S(=O)(=O)O)ccc21)C(N)=O)[C@@H](C)O [WKG*-IRDye800] (H-WKGWSYLWTQQAGGGSK(IRDye800CW)-NH2)
half-life [1]: 5.1 h
Kd [2]: 43 nM
binding to the surface of SK-Hep1 cells [3]: bind intensely
Pearson's correlation coefficient, peptide and anti-CD44-AF488 ([3]; merged image): 0.81

O=C([O-])CN1CCN(CC(=O)[O-])CCN(CC(=O)O)CCN(CC(=O)[O-])CC1.[Gd+3] [free Gd-DOTA, Gd-DOTA]
T/B ratio [4]: 0.99±0.04

HPD*-IRDye800: lead EpCAM peptide HPDMFTRTHSHN (SEQ ID NO: 7) labeled with IRDye800 (also: IRDye800 label, site not given here)
NIR fluorescence intensity versus control PFH*-IRDye800 [5]: significantly greater

B1: HPD*-Cy5.5 (Cy5.5-labeled EpCAM peptide monomer, HPDMFTRTHSHN) (peptide)
peptide: HPDMFTRTHSHN
modifications: also: Cy5.5 label, site and linker not given here
binding result [6]: binds

B2: WKG*-IRDye800 (IRDye800-labeled WKG* peptide monomer, WKGWSYLWTQQA) (peptide)
peptide: WKGWSYLWTQQA
modifications: also: IRDye800 label, site not given here
notes: also called IRDye800-labeled WKD* monomer peptide
Kd [7]: 43 nM

B3: Cy5.5-labeled peptide multimer (ALL*, WKG* and HPD* on a tri-lysine linker) (designed binder)
peptide 1: ALLANHEELFQT
peptide 2: WKGWSYLWTQQA
peptide 3: HPDMFTRTHSHN
modifications: also: each peptide joined through PEG3 extension to a tri-lysine linker, Cy5.5 label, site not given here
notes: also called Cy5.5-labeled multimer; not shown: The branched tri-lysine linker with PEG3 extensions and the Cy5.5 label
fold increase of fluorescence intensity versus the CD44 monomer WKG*-Cy5.5 [8]: 1.84 fold
fold increase of fluorescence intensity versus the GPC3 monomer ALL*-Cy5.5 [9]: 5.48 fold
fold increase of fluorescence intensity versus the EpCAM monomer HPD*-Cy5.5 [10]: 2 fold
